{"source": "patent US8975232B2", "about": "“Macrocyclic kinase inhibitors and uses thereof” (President and Fellows of Harvard College, priority 2010, dated 2015)", "test_in_all_cases": "SelectScreen kinase profiling", "assay_type_in_all_cases": "biochemical", "key": {"MAPK1 (ERK2)": {"target": "MAPK1 (ERK2) (Homo sapiens, UniProt P28482)", "sequence (P28482 whole entry)": "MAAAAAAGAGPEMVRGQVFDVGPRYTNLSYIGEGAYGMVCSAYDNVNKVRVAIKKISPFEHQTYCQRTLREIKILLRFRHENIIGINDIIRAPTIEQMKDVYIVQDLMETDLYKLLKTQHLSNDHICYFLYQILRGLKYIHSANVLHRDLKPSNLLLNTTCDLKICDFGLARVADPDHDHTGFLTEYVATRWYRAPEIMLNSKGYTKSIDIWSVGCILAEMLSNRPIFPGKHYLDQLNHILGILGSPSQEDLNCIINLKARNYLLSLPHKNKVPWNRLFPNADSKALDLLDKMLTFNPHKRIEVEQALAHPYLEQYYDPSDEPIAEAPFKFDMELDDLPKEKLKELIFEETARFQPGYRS", "conditions": "5 μM", "procedure": "(§1) Src IC50 determinations and single-point inhibition measurements were performed using Invitrogen's Z′-LYTE Tyr 02 assay kit according to the manufacturer's protocols. All kinase assays were performed at ATP concentrations near KM,ATP values, except where noted otherwise. Active human Src kinase was obtained from Millipore. For kinome profiling and IC50 determinations against non-Src kinases, compounds were submitted to Invitrogen's SelectScreen Kinase Profiling Service."}, "[1]": {"target": "MAPK14 (p38 alpha) Direct (Homo sapiens, UniProt Q16539)", "sequence (Q16539 whole entry)": "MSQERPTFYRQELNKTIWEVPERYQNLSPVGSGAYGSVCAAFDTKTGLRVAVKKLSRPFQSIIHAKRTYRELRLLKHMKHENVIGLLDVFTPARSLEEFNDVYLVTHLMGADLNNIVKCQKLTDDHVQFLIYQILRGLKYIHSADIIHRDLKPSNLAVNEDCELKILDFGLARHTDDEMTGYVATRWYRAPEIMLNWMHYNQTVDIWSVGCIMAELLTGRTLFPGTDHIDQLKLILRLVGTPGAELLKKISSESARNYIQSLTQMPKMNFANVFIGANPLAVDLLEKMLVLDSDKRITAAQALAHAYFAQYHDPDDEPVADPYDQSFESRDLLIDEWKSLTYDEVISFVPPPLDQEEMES", "conditions": "5 μM", "procedure": "as §1"}, "CHEK1 (CHK1)": {"target": "CHEK1 (CHK1) (Homo sapiens, UniProt O14757)", "sequence (O14757 whole entry)": "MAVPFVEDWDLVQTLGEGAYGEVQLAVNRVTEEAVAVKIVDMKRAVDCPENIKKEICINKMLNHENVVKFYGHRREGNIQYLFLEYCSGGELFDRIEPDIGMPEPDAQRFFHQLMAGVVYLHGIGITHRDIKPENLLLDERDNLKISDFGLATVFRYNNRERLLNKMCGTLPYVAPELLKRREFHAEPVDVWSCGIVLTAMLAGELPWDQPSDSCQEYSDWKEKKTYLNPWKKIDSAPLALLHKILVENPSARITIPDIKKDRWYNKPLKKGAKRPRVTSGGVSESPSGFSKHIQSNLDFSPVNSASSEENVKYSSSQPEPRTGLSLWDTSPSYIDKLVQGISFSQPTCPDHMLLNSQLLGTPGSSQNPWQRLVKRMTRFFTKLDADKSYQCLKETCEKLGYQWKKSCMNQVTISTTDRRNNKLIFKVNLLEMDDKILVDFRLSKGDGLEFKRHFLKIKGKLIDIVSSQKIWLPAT", "conditions": "5 μM", "procedure": "as §1"}, "ABL1": {"target": "ABL1 (Homo sapiens, UniProt P00519)", "sequence (P00519 whole entry)": "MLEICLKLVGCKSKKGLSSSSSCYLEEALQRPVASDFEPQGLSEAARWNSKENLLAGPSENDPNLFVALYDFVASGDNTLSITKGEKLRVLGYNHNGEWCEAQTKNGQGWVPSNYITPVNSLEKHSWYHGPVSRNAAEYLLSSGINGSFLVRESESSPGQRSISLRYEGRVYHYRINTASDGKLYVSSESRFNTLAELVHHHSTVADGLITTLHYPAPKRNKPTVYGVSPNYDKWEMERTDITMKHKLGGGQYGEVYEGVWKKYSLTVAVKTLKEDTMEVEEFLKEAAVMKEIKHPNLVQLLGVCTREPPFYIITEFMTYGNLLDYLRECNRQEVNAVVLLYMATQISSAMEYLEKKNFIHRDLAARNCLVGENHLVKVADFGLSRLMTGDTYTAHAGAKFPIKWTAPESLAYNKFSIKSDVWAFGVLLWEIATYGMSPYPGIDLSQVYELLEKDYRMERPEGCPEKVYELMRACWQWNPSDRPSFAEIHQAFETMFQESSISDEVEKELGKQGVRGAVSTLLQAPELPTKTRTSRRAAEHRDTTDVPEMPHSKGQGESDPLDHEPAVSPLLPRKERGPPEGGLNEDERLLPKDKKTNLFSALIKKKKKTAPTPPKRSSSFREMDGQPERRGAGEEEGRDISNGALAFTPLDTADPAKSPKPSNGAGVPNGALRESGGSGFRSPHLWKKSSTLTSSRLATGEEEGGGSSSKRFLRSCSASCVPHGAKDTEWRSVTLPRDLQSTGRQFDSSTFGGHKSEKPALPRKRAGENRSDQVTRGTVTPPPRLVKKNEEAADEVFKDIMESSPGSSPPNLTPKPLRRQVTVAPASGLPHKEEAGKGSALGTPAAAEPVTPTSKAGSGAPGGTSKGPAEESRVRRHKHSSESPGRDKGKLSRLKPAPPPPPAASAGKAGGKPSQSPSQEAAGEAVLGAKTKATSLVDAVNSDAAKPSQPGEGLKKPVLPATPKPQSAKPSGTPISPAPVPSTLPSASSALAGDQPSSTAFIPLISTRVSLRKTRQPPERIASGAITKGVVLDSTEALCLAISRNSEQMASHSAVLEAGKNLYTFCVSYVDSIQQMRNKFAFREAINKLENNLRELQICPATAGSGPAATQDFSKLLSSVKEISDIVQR", "conditions": "ABL1; 5 μM", "procedure": "as §1"}, "GSK3B (GSK3 beta)": {"target": "GSK3B (GSK3 beta) (Homo sapiens, UniProt P49841)", "sequence (P49841 whole entry)": "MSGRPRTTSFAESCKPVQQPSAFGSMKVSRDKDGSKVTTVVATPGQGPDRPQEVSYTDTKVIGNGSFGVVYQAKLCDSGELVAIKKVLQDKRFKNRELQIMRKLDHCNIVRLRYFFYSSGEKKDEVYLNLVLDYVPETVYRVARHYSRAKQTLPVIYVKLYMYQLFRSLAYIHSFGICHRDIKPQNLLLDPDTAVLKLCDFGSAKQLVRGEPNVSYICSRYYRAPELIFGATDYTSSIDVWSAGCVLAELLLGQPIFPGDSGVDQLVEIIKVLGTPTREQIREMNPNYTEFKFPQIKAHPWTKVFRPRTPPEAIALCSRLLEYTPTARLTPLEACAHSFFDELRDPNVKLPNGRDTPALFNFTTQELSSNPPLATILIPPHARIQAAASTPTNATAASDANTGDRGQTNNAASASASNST", "conditions": "5 μM", "procedure": "as §1"}, "FRK (PTK5)": {"target": "FRK (PTK5) (Homo sapiens, UniProt P42685)", "conditions": "5 μM", "procedure": "as §1"}, "HCK": {"target": "HCK (Homo sapiens, UniProt P08631)", "sequence (P08631 whole entry)": "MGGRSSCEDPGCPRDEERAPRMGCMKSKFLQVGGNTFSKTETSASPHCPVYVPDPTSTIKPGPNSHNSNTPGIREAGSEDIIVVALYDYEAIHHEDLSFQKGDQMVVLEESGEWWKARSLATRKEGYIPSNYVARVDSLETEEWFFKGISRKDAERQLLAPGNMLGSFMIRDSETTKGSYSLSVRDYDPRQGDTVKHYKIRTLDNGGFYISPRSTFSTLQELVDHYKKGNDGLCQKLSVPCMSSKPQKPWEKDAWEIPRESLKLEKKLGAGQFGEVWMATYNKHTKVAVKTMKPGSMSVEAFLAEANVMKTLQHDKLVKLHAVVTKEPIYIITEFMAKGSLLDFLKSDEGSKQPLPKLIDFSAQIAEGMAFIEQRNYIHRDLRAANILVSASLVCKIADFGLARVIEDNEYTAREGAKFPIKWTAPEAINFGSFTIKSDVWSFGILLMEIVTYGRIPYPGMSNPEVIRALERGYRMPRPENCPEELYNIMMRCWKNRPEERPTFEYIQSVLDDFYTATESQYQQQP", "conditions": "HCK; 5 μM", "procedure": "as §1"}, "YES1": {"target": "YES1 (Homo sapiens, UniProt P07947)", "sequence (P07947 whole entry)": "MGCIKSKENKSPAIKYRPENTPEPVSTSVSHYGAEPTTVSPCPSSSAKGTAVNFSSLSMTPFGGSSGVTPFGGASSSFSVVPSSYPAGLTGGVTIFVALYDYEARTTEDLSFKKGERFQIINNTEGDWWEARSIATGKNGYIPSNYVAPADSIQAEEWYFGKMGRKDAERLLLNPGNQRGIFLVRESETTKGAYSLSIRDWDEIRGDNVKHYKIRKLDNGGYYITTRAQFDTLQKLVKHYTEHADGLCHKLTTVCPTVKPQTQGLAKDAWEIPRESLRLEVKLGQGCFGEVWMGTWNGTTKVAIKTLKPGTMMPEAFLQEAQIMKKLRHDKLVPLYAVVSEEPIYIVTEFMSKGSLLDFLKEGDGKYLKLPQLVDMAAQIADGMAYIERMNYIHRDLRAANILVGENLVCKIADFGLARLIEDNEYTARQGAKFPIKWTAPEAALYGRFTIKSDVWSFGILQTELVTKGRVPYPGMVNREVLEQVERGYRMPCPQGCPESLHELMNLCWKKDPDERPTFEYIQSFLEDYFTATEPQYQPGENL", "conditions": "5 μM", "procedure": "as §1"}, "AKT1 (PKB alpha)": {"target": "AKT1 (PKB alpha) (Homo sapiens, UniProt P31749)", "sequence (P31749 whole entry)": "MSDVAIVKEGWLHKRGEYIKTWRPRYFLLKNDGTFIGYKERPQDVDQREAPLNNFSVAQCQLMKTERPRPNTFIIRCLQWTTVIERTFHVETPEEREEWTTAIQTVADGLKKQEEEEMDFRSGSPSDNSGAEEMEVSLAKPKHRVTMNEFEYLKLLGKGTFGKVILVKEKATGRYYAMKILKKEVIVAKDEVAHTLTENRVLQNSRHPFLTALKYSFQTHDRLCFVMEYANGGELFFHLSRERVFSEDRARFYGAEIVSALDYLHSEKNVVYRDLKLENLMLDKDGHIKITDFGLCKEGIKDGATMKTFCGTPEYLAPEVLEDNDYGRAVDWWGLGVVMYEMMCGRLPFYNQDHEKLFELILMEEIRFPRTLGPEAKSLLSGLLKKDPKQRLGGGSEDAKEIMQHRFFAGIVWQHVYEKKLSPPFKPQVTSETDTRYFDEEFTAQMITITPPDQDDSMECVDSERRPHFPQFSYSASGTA", "conditions": "5 μM", "procedure": "as §1"}, "FGR": {"target": "FGR (Homo sapiens, UniProt P09769)", "sequence (P09769 whole entry)": "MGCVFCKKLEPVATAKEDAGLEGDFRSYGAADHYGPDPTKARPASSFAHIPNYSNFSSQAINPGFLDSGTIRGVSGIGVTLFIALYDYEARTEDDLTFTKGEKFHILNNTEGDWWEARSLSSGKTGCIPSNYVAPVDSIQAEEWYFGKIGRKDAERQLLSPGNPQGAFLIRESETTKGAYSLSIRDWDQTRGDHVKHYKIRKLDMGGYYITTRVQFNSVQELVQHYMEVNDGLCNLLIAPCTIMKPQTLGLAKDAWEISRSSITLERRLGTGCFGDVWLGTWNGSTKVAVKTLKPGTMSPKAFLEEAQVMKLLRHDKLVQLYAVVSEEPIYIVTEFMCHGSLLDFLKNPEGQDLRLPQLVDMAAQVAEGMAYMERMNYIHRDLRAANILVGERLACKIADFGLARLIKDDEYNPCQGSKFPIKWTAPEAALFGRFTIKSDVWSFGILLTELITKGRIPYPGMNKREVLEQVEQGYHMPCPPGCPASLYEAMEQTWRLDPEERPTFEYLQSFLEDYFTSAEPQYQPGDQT", "conditions": "FGR; 5 μM", "procedure": "as §1"}, "MAPK14 (p38 alpha)": {"target": "MAPK14 (p38 alpha) (Homo sapiens, UniProt Q16539)", "sequence (Q16539 whole entry)": "as the sequence (Q16539 whole entry) above", "conditions": "5 μM", "procedure": "as §1"}}, "data": [{"smiles": "NC(=O)[C@@H]1CCCNC(=O)[C@H](Cc2ccc([N+](=O)[O-])cc2)NC(=O)[C@H](Cc2ccco2)NC(=O)[C@H](CC2CC2)NC(=O)/C=C/C(=O)N1", "note": "[trans-A10-B1-C5-D6]", "values": [{"measurement": "% inhibition", "setting": "MAPK1 (ERK2)", "value": "−3", "unit": "%"}, {"measurement": "% inhibition", "setting": "[1]", "value": "−9", "unit": "%"}, {"measurement": "% inhibition", "setting": "CHEK1 (CHK1)", "value": "−15", "unit": "%"}, {"measurement": "% inhibition", "setting": "ABL1", "value": 18, "unit": "%"}, {"measurement": "% inhibition", "setting": "GSK3B (GSK3 beta)", "value": "−6", "unit": "%"}, {"measurement": "% inhibition", "setting": "FRK (PTK5)", "value": 15, "unit": "%"}, {"measurement": "% inhibition", "setting": "HCK", "value": 9, "unit": "%"}, {"measurement": "% inhibition", "setting": "YES1", "value": 19, "unit": "%"}, {"measurement": "% inhibition", "setting": "AKT1 (PKB alpha)", "value": "−7", "unit": "%"}, {"measurement": "% inhibition", "setting": "FGR", "value": 13, "unit": "%"}, {"measurement": "% inhibition", "setting": "MAPK14 (p38 alpha)", "value": 32, "unit": "%"}]}]}
